Key:
[1] = Balanced dialysis plasma protein binding test (human); format: in vitro ADME
Protocol: (§1) 1. Immersing a dialysis membrane (water: 60 minutes, 20% ethanol: 20 minutes, dialysis buffer: 20 minutes). 2. Diluting the test compound in dimethyl sulfoxide (working solution) to 200 μM. 3. Thawing the plasma in a 37° C. water bath and centrifuge the plasma at 3220 g for 10 minutes to remove blood clots. 4. Transferring the supernatant to a new tube and preheating it in a 37° C. water bath for 10 minutes. 5. Assembling HTD dialysis equipment according to the manufacturer's guidelines. 6. Adding 3 μL of 200 μM test compound to 597 μL of plasma and rotating at 1000 rpm for 2 minutes. 7. Transferring 50 μL of spiked plasma to a 96 well plate, then adding 50 μL of dialysis buffer and 200 μL of methanol, using IS * as the T0 sample. 8. Adding 120 μL of spiked plasma and 120 μL of dialysis buffer in duplicate into the chamber of the HTD dialysis device. 9. Covering the dialysis equipment with a breathable cover and incubating the dialysis equipment and the remaining spiked plasma at 37° C. (100 rpm, 5% CO2) for 6 hours. 10. Transferring 50 μL of dialyzed sample from the dialysis buffer and the plasma chamber to a separate 96 well plate, then adding 50 μL of blank plasma or dialysis buffer and 200 μL of methanol, with IS * as the B and P samples. 11. Transferring 50 μL of remaining spiked plasma (as described in step 9) to a 96 well plate, then adding 50 μL of dialysis buffer and 200 μL of methanol, with IS * as the T6 sample. 12. Centrifuging the sample plate at 3220 g for 40 minutes. 13. Transferring 100 μL of supernatant onto an analytical plate containing an appropriate volume of water for LC-MS/MS. 14. Data analysis.

[2] = Balanced dialysis plasma protein binding test (rat); format: in vitro ADME
Protocol: as §1

[3] = Liver microsome metabolism stability test (human); format: in vitro ADME; conditions: human liver microsomes, 1 μM compound
Protocol: Two separate experiments were conducted. a) NADPH: 10 μL of 20 mg/mL liver microsomes and 40 μL of 10 mM NADPH were added to a culture medium. The final concentrations of microsomes and NADPH were 0.5 mg/mL and 1 mM, respectively. b) NADPH free: 10 μL of 20 mg/mL liver microsomes and 40 μL of ultrapure H2O were added to a culture medium. The final concentration of microsomes was 0.5 mg/mL.
At the beginning of the reaction, 4 μL of 100 μM test compound solution or a control compound solution with a final concentration of 1 μM were added, and proceed at 37° C.
50 μL aliquots were taken from the reaction solution at 0, 7, 15, 30, and 60 minutes. The reaction was stopped by adding 4 volumes of cold acetonitrile and IS (100 nM alprazolam, 200 nM labetalol, 200 nM caffeine, and 2 μM ketoprofen). The samples were centrifuged at 3220 grams for 40 minutes. 100 μL supernatant divided equally was mixed with 100 μL of ultrapure H2O, and use for LC-MS/MS analysis.

[4] = Permeability experiment of Caco-2 cells; format: in vitro ADME; conditions: human, pH 7.4, Caco-2, 5 μM
Protocol: (§2) 1. Transwell plate preheating: before laying cells, adding 100 μL of culture medium to the upper layer of Transwell plate and 600 μL of culture medium to the lower layer of Transwell plate, Pre-incubating at 37° C. under 5% CO2 for 1 hour. 2. Treating Caco-2 cells by adding 100 μL of cell suspension (4×10^5 cells/mL) to each well, and cultivating in a 37° C., 5% CO2 incubator for 14-21 days. 3. Changing the cell culture medium every other day within 7 days, and changing it daily after 7 days. 4. Using EVOM3 to measure single-layer epithelial to epithelial resistance (TEER).
(§3) 1. Preheating HBSS (10 mM HEPES, pH 7.4) buffer, cleaning the upper and lower layers of Transwell plates twice each, and incubating at 37° C. for 30 minutes. 2. Working solution: Diluting the test compound HBSS buffer with 1 mM DMSO to 5 μM. 3. A-B direction: Adding 200 μL of 5 μM working solution to the upper layer and 600 μL of HBSS buffer solution to the lower layer; 4. B-A direction: Adding 600 μL of 5 μM working solution to the lower layer and 200 μL of HBSS buffer to the upper layer, and incubating for 2 hours. 5. C0 sample: Taking 100 μL of working solution to a sample plate containing 400 μL of methanol (internal standard). 6. After incubation for 2 hours, taking 100 μL from the upper and lower layers of the chamber to the sample plates containing 400 μL of methanol (internal standard). 7. Mixing and centrifuging, mixing the supernatant with a certain amount of water, and using the sample for LC-MS/MS data analysis. 8. After completing step 6, adding 200 μL of 100 μM fluorescent yellow solution to the upper chamber and 600 μL of HBSS buffer salt solution to the lower chamber. Incubating at 37° C. and 5% CO2 for 30 minutes, and taking out 50 μL of each into a black plate to read the fluorescence value. 9. Data analysis.

[5] = system: Caco-2 cells; experiment: Permeability experiment of Caco-2 cells; format: in vitro ADME; conditions: Caco-2, 5 μM
Protocol: as §2, §3

[6] = molecular target: hTRPV4 (Homo sapiens, UniProt Q9HBA0); experiment: Inhibition rate on different hTRPs: hTRPV4; format: cell-based
[7] = molecular target: hTRPA1 (Homo sapiens, UniProt O75762); experiment: Inhibition rate on different hTRPs: hTRPA1; format: cell-based
Sequence of hTRPA1 (O75762 whole entry): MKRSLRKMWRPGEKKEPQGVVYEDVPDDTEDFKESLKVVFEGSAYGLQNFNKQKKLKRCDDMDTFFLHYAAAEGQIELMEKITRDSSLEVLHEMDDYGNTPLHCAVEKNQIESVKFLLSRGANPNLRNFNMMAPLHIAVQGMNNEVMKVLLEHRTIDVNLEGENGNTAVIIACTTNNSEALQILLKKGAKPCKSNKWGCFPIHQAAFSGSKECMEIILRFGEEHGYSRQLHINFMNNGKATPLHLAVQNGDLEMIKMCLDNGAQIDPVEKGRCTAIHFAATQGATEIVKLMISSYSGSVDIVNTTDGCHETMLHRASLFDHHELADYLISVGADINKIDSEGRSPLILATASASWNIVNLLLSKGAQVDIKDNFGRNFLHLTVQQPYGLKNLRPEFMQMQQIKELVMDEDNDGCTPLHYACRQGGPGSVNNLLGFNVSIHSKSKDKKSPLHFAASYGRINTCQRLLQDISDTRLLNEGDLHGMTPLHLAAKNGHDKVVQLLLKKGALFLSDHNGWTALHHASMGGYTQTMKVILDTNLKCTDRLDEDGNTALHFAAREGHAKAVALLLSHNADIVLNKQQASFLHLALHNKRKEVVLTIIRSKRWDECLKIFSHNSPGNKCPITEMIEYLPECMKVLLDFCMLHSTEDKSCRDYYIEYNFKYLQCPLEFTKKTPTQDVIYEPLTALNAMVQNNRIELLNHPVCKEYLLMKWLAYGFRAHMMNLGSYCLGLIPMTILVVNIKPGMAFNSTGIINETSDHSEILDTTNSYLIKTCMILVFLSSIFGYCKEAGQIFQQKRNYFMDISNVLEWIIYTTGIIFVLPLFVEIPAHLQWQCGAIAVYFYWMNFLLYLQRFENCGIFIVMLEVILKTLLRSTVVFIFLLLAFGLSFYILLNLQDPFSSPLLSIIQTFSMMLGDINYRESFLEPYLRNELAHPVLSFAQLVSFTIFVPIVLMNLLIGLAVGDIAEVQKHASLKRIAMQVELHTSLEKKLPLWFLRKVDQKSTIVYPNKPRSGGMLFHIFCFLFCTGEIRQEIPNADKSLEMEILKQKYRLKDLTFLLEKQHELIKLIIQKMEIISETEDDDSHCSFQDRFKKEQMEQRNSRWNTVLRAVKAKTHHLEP

Sequence of hTRPV4 (Q9HBA0 whole entry): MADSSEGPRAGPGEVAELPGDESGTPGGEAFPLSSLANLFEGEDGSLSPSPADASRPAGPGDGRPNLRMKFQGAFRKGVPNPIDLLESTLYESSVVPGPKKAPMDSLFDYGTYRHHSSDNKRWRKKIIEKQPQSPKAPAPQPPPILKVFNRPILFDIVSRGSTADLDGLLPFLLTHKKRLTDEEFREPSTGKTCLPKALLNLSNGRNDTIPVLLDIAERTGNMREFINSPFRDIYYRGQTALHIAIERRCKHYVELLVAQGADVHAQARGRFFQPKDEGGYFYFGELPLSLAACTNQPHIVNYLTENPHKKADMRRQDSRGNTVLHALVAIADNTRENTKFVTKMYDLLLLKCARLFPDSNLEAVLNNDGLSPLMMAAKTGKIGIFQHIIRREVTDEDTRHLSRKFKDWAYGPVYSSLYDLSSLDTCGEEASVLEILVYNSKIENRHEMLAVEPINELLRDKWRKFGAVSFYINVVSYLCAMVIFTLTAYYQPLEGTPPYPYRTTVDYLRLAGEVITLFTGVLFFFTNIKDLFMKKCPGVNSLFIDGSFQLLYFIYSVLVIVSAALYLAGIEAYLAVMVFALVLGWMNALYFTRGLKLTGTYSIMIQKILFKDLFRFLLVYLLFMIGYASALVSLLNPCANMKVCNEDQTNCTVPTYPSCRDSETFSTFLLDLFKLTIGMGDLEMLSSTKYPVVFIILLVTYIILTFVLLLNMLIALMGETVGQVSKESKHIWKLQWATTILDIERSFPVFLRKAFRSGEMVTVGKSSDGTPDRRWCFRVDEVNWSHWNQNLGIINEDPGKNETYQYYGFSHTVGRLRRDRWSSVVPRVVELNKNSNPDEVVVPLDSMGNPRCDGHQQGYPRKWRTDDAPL

recover % [1] [%] | remaining % ([1]; 6 hours) [%] | binding % ([1]; 6 hours dialysis) [%] | dissociated % ([1]; 6 hours dialysis) [%] | recover % [2] [%] | remaining % ([2]; 6 hours) [%] | binding % ([2]; 6 hours dialysis) [%] | dissociated % ([2]; 6 hours dialysis) [%] | in vitro Clint [3] | half-life at 1 μM ([3]; read-out: in vitro T1/2) [min] | Papp A→B at 2 h, 5 μM ([4]; 2 hours) [×10⁻⁶ cm/s] | Papp B→A at 2 h, 5 μM ([4]; 2 hours) [×10⁻⁶ cm/s] | efflux ratio at 2 h, 5 μM ([4]; read-out: External ratio) | Recover A→B % [5] [%] | Recover B→A % [5] [%] | inhibition at 0.3 µM ([6]; hTRPV4, 0.3 μM) [%] | Selectivity ratio ([6]; inhibition rate on TRPV3 / inhibition rate on hTRPV4, 0.3 μM) [X] | inhibition at 0.3 µM ([7]; hTRPA1, 0.3 μM) [%] | Selectivity ratio ([7]; inhibition rate on TRPV3 / inhibition rate on hTRPA1, 0.3 μM) [X] | Structure (SMILES)
87.63 | 97.37 | 99.58 | 0.42 | 92.94 | 102.46 | 99.78 | 0.22 | 70.41 microliters/minute/milligrams | 19.7 | – | – | – | – | – | – | – | – | – | O=C(c1ccc(F)cn1)N1CCC2(CC(O)c3cc(-c4ccccc4C4CC4)ccc32)C1 (stereo not shown) [Example 15, (5-(2-cyclopropylphenyl)-3-hydroxy-2,3-dihydrospiro[indene-1,3′-pyrrolidine]-1′-yl)(5-fluoropyridin-2-yl) ketone]
– | – | – | – | – | – | – | – | – | – | 20.9 | 9.58 | 0.46 | 49.40 | 68.20 | 29.3 | 3.1 | 10.7 | 8.4 | O=C(c1ccc(F)cn1)N1CC[C@@]2(C[C@@H](O)c3cc(-c4ccccc4C4CC4)ccc32)C1 [Example 21, ((1S,3R)-5-(2-cyclopropylphenyl)-3-hydroxy-2,3-dihydrospiro[indene-1,3′-pyrrolidine]-1′-yl)(5-fluoropyridin-2-yl)ketone]

— patent US20260174786A1, “A NITROGEN-CONTAINING SPIROCYCLIC COMPOUND, PHARMACEUTICAL COMPOSITION AND USE THEREOF” (Prime Gene Therapeutics Co., Ltd., priority 2022, published 2026)
